Starred links: 1 amine or outer side, 2 acyl side, 3 side chain; linkers in the order of their positions; H or OH if unused. Non-standard residues stand in square brackets, D forms with d. Residues, ends and D or L forms follow the SMILES beside them. Groups on a side chain read outwards from the residue. *: point of attachment. C18 diacid = O=C(O)CCCCCCCCCCCCCCCCC(=O)*; γGlu = O=C(O)[C@H](CCC(=O)[*:2])N[*:1]; NMeY = CN[C@@H](Cc1ccc(O)cc1)C(=O)O; AEEA = NCCOCCOCC(=O)O; Aib = CC(C)(N)C(=O)O
Assay: physchem
How it was run: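 3 mg of peptide treated with 100 μL portions of 200 mM phosphate buffer pH 7.4, sonicating/vortexing up to 1 min, with further buffer added until fully dissolved. Solubility then quantified by HPLC.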

[1] = pH 7.4, aqueous buffer, pH 7.4 Phosphate Buffer - Solubility, 200 mM Phosphate buffer pH 7.4

Row | SMILES | solubility (pH 7.4) [mg/mL] | solubility (pH 7.4, aqueous buffer) [mg/mL] | solubility [1] [mg/mL] | solubility (pH 7.4, solubility in phosphate buffer at pH 7.4, 200 mM phosphate buffer pH 7.4) [mg/mL]
1 | CC[C@H](C)[C@H](NC(=O)[C@H](Cc1ccccc1)NC(=O)[C@@H](NC(=O)CNC(=O)[C@H](CCC(=O)O)NC(=O)C(C)(C)NC(=O)[C@H](Cc1ccc(O)cc1)NC)[C@@H](C)O)C(=O)N[C@@H](CO)C(=O)N[C@@H](CC(=O)O)C(=O)N[C@@H](Cc1ccc(O)cc1)C(=O)N[C@@H](CO)C(=O)N[C@H](C(=O)NC(C)(C)C(=O)N[C@@H](CC(C)C)C(=O)N[C@@H](CC(=O)O)C(=O)N[C@@H](CCCNC(=N)N)C(=O)NC(C)(C)C(=O)N[C@@H](C)C(=O)N[C@@H](CCC(N)=O)C(=O)NC(C)(C)C(=O)N[C@@H](CCCCNC(=O)COCCOCCNC(=O)COCCOCCNC(=O)CC[C@H](NC(=O)CC[C@H](NC(=O)CCCCCCCCCCCCCCCCC(=O)O)C(=O)O)C(=O)O)C(=O)N[C@@H](Cc1ccccc1)C(=O)N[C@H](C(=O)N[C@@H](CC(N)=O)C(=O)N[C@@H](Cc1c[nH]c2ccccc12)C(=O)N[C@@H](CC(C)C)C(=O)N[C@@H](CC(C)C)C(=O)N[C@@H](C)C(=O)N[C@@H](CCC(N)=O)C(=O)N[C@@H](CO)C(=O)N1CCC[C@H]1C(=O)NCC(=O)O)C(C)C)[C@@H](C)CC [Compound 85] (H-[NMeY][Aib]EGTFISDYSI[Aib]LDR[Aib]AQ[Aib]K([AEEA-AEEA-γGlu-γGlu-C18 diacid])FVNWLLAQSPG-OH) | ≥ 15 | ≥ 30 | – | –
2 | CC[C@H](C)[C@H](NC(=O)[C@H](Cc1ccccc1)NC(=O)[C@@H](NC(=O)CNC(=O)[C@H](CCC(=O)O)NC(=O)C(C)(C)NC(=O)[C@H](Cc1ccc(O)cc1)NC)[C@@H](C)O)C(=O)N[C@@H](CO)C(=O)N[C@@H](CC(=O)O)C(=O)N[C@@H](Cc1ccc(O)cc1)C(=O)N[C@@H](CO)C(=O)N[C@H](C(=O)NC(C)(C)C(=O)N[C@@H](CC(C)C)C(=O)N[C@@H](CC(=O)O)C(=O)N[C@@H](CCCNC(=N)N)C(=O)NC(C)(C)C(=O)N[C@@H](C)C(=O)N[C@@H](CCC(N)=O)C(=O)NC(C)(C)C(=O)N[C@@H](CCCCNC(=O)COCCOCCNC(=O)COCCOCCNC(=O)CC[C@H](NC(=O)CCCCCCCCCCCCCCCCC(=O)O)C(=O)O)C(=O)N[C@@H](Cc1ccccc1)C(=O)N[C@H](C(=O)N[C@@H](CC(N)=O)C(=O)N[C@@H](Cc1c[nH]c2ccccc12)C(=O)N[C@@H](CC(C)C)C(=O)N[C@@H](CC(C)C)C(=O)N[C@@H](C)C(=O)N[C@@H](CCC(N)=O)C(=O)N[C@@H](CO)C(=O)N1CCC[C@H]1C(=O)N[C@@H](CO)C(=O)N[C@@H](CO)C(=O)NCC(=O)N[C@@H](C)C(=O)N1CCC[C@H]1C(=O)N1CCC[C@H]1C(=O)N1CCC[C@H]1C(=O)N[C@@H](CO)C(N)=O)C(C)C)[C@@H](C)CC [Compound 91] (H-[NMeY][Aib]EGTFISDYSI[Aib]LDR[Aib]AQ[Aib]K([AEEA-AEEA-γGlu-C18 diacid])FVNWLLAQSPSSGAPPPS-NH2) | – | – | ≥ 60 | ≥ 15
3 | CC[C@H](C)[C@H](NC(=O)[C@H](CO)NC(=O)[C@H](Cc1ccc(O)cc1)NC(=O)[C@H](CC(=O)O)NC(=O)[C@H](CO)NC(=O)[C@@H](NC(=O)[C@H](Cc1ccccc1)NC(=O)[C@@H](NC(=O)CNC(=O)[C@H](CCC(=O)O)NC(=O)C(C)(C)NC(=O)[C@H](Cc1ccc(O)cc1)NC)[C@@H](C)O)[C@@H](C)CC)C(=O)N[C@@H](C)C(=O)N[C@@H](CCCCNC(=O)CNC(=O)CNC(=O)CNC(=O)CNC(=O)CNC(=O)CC[C@H](NC(=O)CCCCCCCCCCCCCCCC(=O)O)C(=O)O)C(=O)N[C@@H](CC(=O)O)C(=O)N[C@@H](CCCNC(=N)N)C(=O)NC(C)(C)C(=O)N[C@@H](C)C(=O)N[C@@H](CCC(N)=O)C(=O)NC(C)(C)C(=O)N[C@@H](CC(N)=O)C(=O)N[C@@H](Cc1ccccc1)C(=O)N[C@H](C(=O)N[C@@H](CC(N)=O)C(=O)N[C@@H](Cc1c[nH]c2ccccc12)C(=O)N[C@@H](CC(C)C)C(=O)N[C@@H](CC(C)C)C(=O)N[C@@H](C)C(=O)N[C@@H](CCC(N)=O)C(=O)N[C@@H](CCCNC(=N)N)C(=O)N1CCC[C@H]1C(=O)N[C@@H](CO)C(=O)N[C@@H](CO)C(=O)NCC(=O)N[C@@H](C)C(=O)N1CCC[C@H]1C(=O)N1CCC[C@H]1C(=O)N1CCC[C@H]1C(=O)N[C@@H](CO)C(N)=O)C(C)C [Compound 260] | – | – | < 6 | –
4 | CC[C@H](C)[C@H](NC(=O)[C@H](CO)NC(=O)[C@H](Cc1ccc(O)cc1)NC(=O)[C@H](CC(=O)O)NC(=O)[C@H](CO)NC(=O)[C@@H](NC(=O)[C@H](Cc1ccccc1)NC(=O)[C@@H](NC(=O)CNC(=O)[C@H](CCC(=O)O)NC(=O)C(C)(C)NC(=O)[C@@H](N)Cc1ccc(O)cc1)[C@@H](C)O)[C@@H](C)CC)C(=O)N[C@@H](C)C(=O)N[C@@H](CC(C)C)C(=O)N[C@@H](CC(=O)O)C(=O)N[C@@H](CCCCN)C(=O)NC(C)(C)C(=O)N[C@@H](CCCCNC(=O)COCCOCCNC(=O)COCCOCCNC(=O)CC[C@H](NC(=O)CCCCCCCCCCCCCCCCC(=O)O)C(=O)O)C(=O)N[C@@H](CCC(N)=O)C(=O)N[C@@H](C)C(=O)N[C@@H](CC(N)=O)C(=O)N[C@@H](Cc1ccccc1)C(=O)N[C@H](C(=O)N[C@@H](CCC(=O)O)C(=O)N[C@@H](Cc1c[nH]c2ccccc12)C(=O)N[C@@H](CC(C)C)C(=O)N[C@@H](CC(C)C)C(=O)N[C@@H](C)C(=O)N[C@@H](CCC(N)=O)C(=O)N[C@@H](CCCNC(=N)N)C(=O)NCC(=O)O)C(C)C [Compound 163] (H-Y[Aib]EGTFISDYSIALDK[Aib]K([AEEA-AEEA-γGlu-C18 diacid])QANFVEWLLAQRG-OH) | ≥ 15 | ≥ 30 | – | –
5 | CC[C@H](C)[C@H](NC(=O)[C@H](CO)NC(=O)[C@H](Cc1ccc(O)cc1)NC(=O)[C@H](CC(=O)O)NC(=O)[C@H](CO)NC(=O)[C@@H](NC(=O)[C@H](Cc1ccccc1)NC(=O)[C@@H](NC(=O)CNC(=O)[C@H](CCC(=O)O)NC(=O)C(C)(C)NC(=O)[C@H](Cc1ccc(O)cc1)NC)[C@@H](C)O)[C@@H](C)CC)C(=O)N[C@@H](C)C(=O)N[C@@H](CCCCNC(=O)CNC(=O)CNC(=O)CNC(=O)CNC(=O)CNC(=O)CCCCCCCCCCCCCCCCC(=O)O)C(=O)N[C@@H](CC(=O)O)C(=O)N[C@@H](CCCNC(=N)N)C(=O)NC(C)(C)C(=O)N[C@@H](C)C(=O)N[C@@H](CCC(N)=O)C(=O)NC(C)(C)C(=O)N[C@@H](CC(=O)O)C(=O)N[C@@H](Cc1ccccc1)C(=O)N[C@H](C(=O)N[C@@H](CCC(=O)O)C(=O)N[C@@H](Cc1c[nH]c2ccccc12)C(=O)N[C@@H](CC(C)C)C(=O)N[C@@H](CC(C)C)C(=O)N[C@@H](C)C(=O)N[C@@H](CCC(N)=O)C(=O)N[C@@H](CO)C(=O)N1CCC[C@H]1C(=O)NCC(=O)O)C(C)C [Compound 118] | ≥ 15 | ≥ 30 | – | –

— patent US20230143604A1, “QW DOSING OF GIP RECEPTOR AGONIST PEPTIDE COMPOUNDS AND USES THEREOF” (TAKEDA PHARMACEUTICAL COMPANY LIMITED, priority 2020, published 2023)
